SMILES strings stand for the structures.

For data set [1], the target named is T1, 3',5'-cyclic-AMP phosphodiesterase 4D (Homo sapiens, UniProt Q08499). Nature of the data set: Inhibition of recombinant full-length PDE4D2 (unknown origin) at 1 uM using FAM-cAMP as substrate preincubated for 15 mins followed by substrate addition and measured after 30 mins by plate reader assay relative to control. As to conditions: time 45.0 min.
The test system of data set [2] is RAW264.7. Nature of the data set: Anti-inflammatory activity against LPS induced mouse RAW264.7 cells assessed as reduction in TNFalpha secretion at 10 uM incubated for 24 hrs by ELISA. It counts as functional. (In general: ELISA stands for enzyme-linked immunosorbent assay.)
Data set [3] addresses T1, 3',5'-cyclic-AMP phosphodiesterase 4D. Nature of the data set: Inhibition of recombinant full-length PDE4D2 (unknown origin) using FAM-cAMP as substrate preincubated for 15 mins followed by substrate addition and measured after 30 mins by plate reader assay.
Data set [4] has as its system RAW264.7. Nature of the data set: Anti-inflammatory activity against LPS induced mouse RAW264.7 cells assessed as reduction in TNFalpha secretion incubated for 24 hrs by ELISA. Conditions: RAW264.7, 24 h. Format: functional, cell-based.
In data set [5] the test system is RAW264.7. As to the kind of experiment: Anti-inflammatory activity against LPS induced mouse RAW264.7 cells assessed as reduction in IL-6 secretion incubated for 24 hrs by ELISA. Format: functional, cell-based. Conditions: RAW264.7, 24 h.
A short description of data set [6]: Cytotoxicity against mouse RAW264.7 cells incubated for 24 hrs by CCK8 assay. It counts as toxicity, cell-based. A general note: Tetrazolium assays rely on reduction of a dye to a coloured formazan, in cell work by metabolically active cells.
A further data set relates to HaCaT. As to the kind of experiment: Anti-inflammatory activity against M5 induced human HaCaT cells assessed as reduction in TNFalpha secretion incubated for 24 hrs by ELISA. It counts as functional, cell-based.
Data set [7] can be described thus: Cytotoxicity against human HaCaT cells incubated for 24 hrs by CCK8 assay. Format: toxicity, cell-based.

T1 sequence (Q08499 whole entry): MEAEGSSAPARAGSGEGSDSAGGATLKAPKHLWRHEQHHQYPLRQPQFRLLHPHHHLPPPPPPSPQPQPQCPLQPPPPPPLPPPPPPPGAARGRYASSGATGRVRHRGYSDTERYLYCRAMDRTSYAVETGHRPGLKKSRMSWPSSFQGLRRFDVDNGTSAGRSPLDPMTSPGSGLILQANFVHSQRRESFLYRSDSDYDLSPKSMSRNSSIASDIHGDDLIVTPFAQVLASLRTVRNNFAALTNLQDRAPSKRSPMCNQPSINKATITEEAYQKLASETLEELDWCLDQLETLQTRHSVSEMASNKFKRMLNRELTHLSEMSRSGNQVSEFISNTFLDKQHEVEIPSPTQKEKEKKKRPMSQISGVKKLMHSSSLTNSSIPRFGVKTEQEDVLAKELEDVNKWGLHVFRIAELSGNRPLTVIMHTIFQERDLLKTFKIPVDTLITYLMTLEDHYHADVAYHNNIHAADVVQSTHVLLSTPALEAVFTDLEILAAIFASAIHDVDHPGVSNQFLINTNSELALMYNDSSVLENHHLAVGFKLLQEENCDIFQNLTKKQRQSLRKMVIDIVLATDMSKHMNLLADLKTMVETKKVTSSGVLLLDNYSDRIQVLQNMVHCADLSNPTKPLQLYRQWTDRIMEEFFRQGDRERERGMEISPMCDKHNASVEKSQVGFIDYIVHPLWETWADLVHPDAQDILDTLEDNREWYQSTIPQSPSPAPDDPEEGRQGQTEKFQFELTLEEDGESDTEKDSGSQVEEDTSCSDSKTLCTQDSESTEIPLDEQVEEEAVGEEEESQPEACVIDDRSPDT

For the molecule `CC(C)(C)CNC(=O)c1cnn2c(-c3ccc(OC(F)F)c(OCC4CC4)c3)ccnc12`, in data set [1], the inhibition – broadly, how much of the control response was suppressed – is under 73.1%.

For the molecule `O=C(Nc1ccc2cc[nH]c2c1)c1cnn2c(-c3ccc(OC(F)F)c(OCC4CC4)c3)ccnc12`, the inhibition in data set [1] was under 73.1%.

On to `O=C(NCc1ncccn1)c1cc2nccc(-c3ccc(OC(F)F)c(OCC4CC4)c3)n2n1`, for which the inhibition in data set [1] is 70.7%. Further, the inhibition at 10 µM in the data set on RAW264.7 [2] is 25.1%.

For the molecule `O=C(NCc1cccnc1)c1cnn2c(-c3ccc(OC(F)F)c(OCC4CC4)c3)ccnc12`, the inhibition in data set [1] was under 73.1%.

Take `O=C(Nc1ccccc1)c1cnn2c(-c3ccc(OC(F)F)c(OCC4CC4)c3)ccnc12`: in data set [1], the inhibition is under 73.1%.

As for `O=C(Nc1nccs1)c1csc(-c2ccc(OC(F)F)c(OCC3CC3)c2)n1`, the inhibition in data set [1] amounted to 64.8%. The inhibition at 10 µM in the data set on RAW264.7 [2] is 14.6%.

`O=C(Nc1nc2ccccc2s1)c1csc(-c2ccc(OC(F)F)c(OCC3CC3)c2)n1`: the inhibition in data set [1] is 75.3%. The inhibition at 10 µM with RAW264.7 [2] was determined as 21.7%.

Consider `O=C(NCc1c(F)cccc1F)c1csc(-c2ccc(OC(F)F)c(OCC3CC3)c2)n1`, for which the IC50 (usually the concentration needed to halve the response being measured) was 9.36 nM in data set [3], 48400 nM in the data set on RAW264.7 [4], 57000 nM with RAW264.7 [5] and 22600 nM in the data set with HaCaT. Also, the CC50 at 24 h in data set [6] and in data set [7] was over 50000 nM throughout.

As for `O=C(NCC1CCOCC1)c1cc2nccc(-c3ccc(OC(F)F)c(OCC4CC4)c3)n2n1`, the inhibition in data set [1] was determined as 62.7%. Further, the inhibition at 10 µM with RAW264.7 [2] was determined as 38.6%.

`O=C(NCc1ccc(F)cc1F)c1cnn2c(-c3ccc(OC(F)F)c(OCC4CC4)c3)ccnc12`: the inhibition in data set [1] was under 73.1%.

For the molecule `CC(C)CNC(=O)c1cnn2c(-c3ccc(OC(F)F)c(OCC4CC4)c3)ccnc12`, the inhibition in data set [1] was under 73.1%.

For `O=C(NCc1ccccc1)c1cc2nccc(-c3ccc(OC(F)F)c(OCC4CC4)c3)n2n1`, in data set [3], the IC50 is 546 nM. Also, in the data set with RAW264.7 [2], the inhibition at 10 µM was found to be 19.6%.

As to `O=C(NCc1c(F)cc(F)cc1F)c1cnn2c(-c3ccc(OC(F)F)c(OCC4CC4)c3)ccnc12`, in data set [1], the inhibition was under 73.1%.

In the case of `O=C(NCc1c(F)cccc1F)c1cnn2c(-c3ccc(OC(F)F)c(OCC4CC4)c3)ccnc12`, in data set [1], the inhibition was under 73.1%.

For the molecule `O=C(NC1CC1)c1cnn2c(-c3ccc(OC(F)F)c(OCC4CC4)c3)ccnc12`, the inhibition in data set [1] is under 73.1%.

Turning to `O=C(NCc1ccccc1)c1csc(-c2ccc(OC(F)F)c(OCC3CC3)c2)n1`, the IC50 in data set [3] came to 25.9 nM. For the same molecule, in the data set on RAW264.7 [2], the inhibition at 10 µM came out at 29%.

Consider `O=C(NCc1ccc(F)cc1F)c1cc2nccc(-c3ccc(OC(F)F)c(OCC4CC4)c3)n2n1`, for which the IC50 in data set [3] was found to be 558 nM. Besides, the inhibition at 10 µM with RAW264.7 [2] came out at 13.6%.

For `Cn1cc(NC(=O)c2cc3nccc(-c4ccc(OC(F)F)c(OCC5CC5)c4)n3n2)cn1`, in data set [1], the inhibition was 46.7%. In addition, in the data set on RAW264.7 [2], the inhibition at 10 µM worked out at 15.4%.

Regarding `O=C(NCc1ccc2ccccc2c1)c1csc(-c2ccc(OC(F)F)c(OCC3CC3)c2)n1`, the inhibition in data set [1] was 78%. For the same molecule, the inhibition at 10 µM in the data set on RAW264.7 [2] was determined as 14%.

With `O=C(NCc1ccccc1)c1cnn2c(-c3ccc(OC(F)F)c(OCC4CC4)c3)ccnc12`, in data set [1], the inhibition is under 73.1%.

As to `O=C(Nc1ccncc1)c1cnn2c(-c3ccc(OC(F)F)c(OCC4CC4)c3)ccnc12`, in data set [1], the inhibition was under 73.1%.

For the molecule `O=C(Nc1ccccc1)c1cc2nccc(-c3ccc(OC(F)F)c(OCC4CC4)c3)n2n1`, in data set [1], the inhibition was 89.2%. In addition, the inhibition at 10 µM in the data set on RAW264.7 [2] worked out at 16.5%.

Regarding `O=C(NCc1cc(F)ccc1F)c1cnn2c(-c3ccc(OC(F)F)c(OCC4CC4)c3)ccnc12`, the inhibition in data set [1] was under 73.1%.

Turning to `O=C(NCc1ccc2ccccc2c1)c1cc2nccc(-c3ccc(OC(F)F)c(OCC4CC4)c3)n2n1`, the inhibition in data set [1] was determined as 38.3%. Further, the inhibition at 10 µM in the data set on RAW264.7 [2] was 12.4%.

Regarding `COc1ccc(CNC(=O)c2cnn3c(-c4ccc(OC(F)F)c(OCC5CC5)c4)ccnc23)cn1`, in data set [1], the inhibition was under 73.1%.

For the molecule `O=C(NCc1c(F)cccc1F)c1cc2nccc(-c3ccc(OC(F)F)c(OCC4CC4)c3)n2n1`, the inhibition in data set [1] amounted to 41.9%. For the same molecule, the inhibition at 10 µM in the data set with RAW264.7 [2] came to 27.9%.

As to `O=C(NCc1ccc2ccccc2c1)c1cnn2c(-c3ccc(OC(F)F)c(OCC4CC4)c3)ccnc12`, the inhibition in data set [1] is under 73.1%.

`O=C(NCc1cccnc1)c1cc2nccc(-c3ccc(OC(F)F)c(OCC4CC4)c3)n2n1`: the inhibition in data set [1] was 49.3%. In addition, the inhibition at 10 µM in the data set with RAW264.7 [2] amounted to 6.6%.

With `O=C(Nc1nccs1)c1cc2nccc(-c3ccc(OC(F)F)c(OCC4CC4)c3)n2n1`, in data set [1], the inhibition amounted to 86.1%. For the same molecule, in the data set with RAW264.7 [2], the inhibition at 10 µM was determined as 25.8%.

In the case of `O=C(NCc1c(F)cc(F)cc1F)c1cc2nccc(-c3ccc(OC(F)F)c(OCC4CC4)c3)n2n1`, in data set [1], the inhibition is 38.4%. In addition, the inhibition at 10 µM with RAW264.7 [2] is 23.3%.

Take `O=C(NCC1CCOCC1)c1cnn2c(-c3ccc(OC(F)F)c(OCC4CC4)c3)ccnc12`: the inhibition in data set [1] was under 73.1%.

For the molecule `O=C(NCc1cccc(F)c1F)c1csc(-c2ccc(OC(F)F)c(OCC3CC3)c2)n1`, the IC50 in data set [3] is 25 nM. In the data set with RAW264.7 [2], the inhibition at 10 µM is 24.8%.

`O=C(Nc1ccccc1)c1csc(-c2ccc(OC(F)F)c(OCC3CC3)c2)n1`: the inhibition in data set [1] stood at 72.4%. In addition, in the data set on RAW264.7 [2], the inhibition at 10 µM turned out to be 26.5%.

For the molecule `O=C(NCc1ccc(F)cc1F)c1csc(-c2ccc(OC(F)F)c(OCC3CC3)c2)n1`, in data set [1], the inhibition came to 79.1%. Further, the inhibition at 10 µM with RAW264.7 [2] stood at 17.6%.

Turning to `O=C(O)c1csc(-c2ccc(OC(F)F)c(OCC3CC3)c2)n1`, the inhibition in data set [1] came to 78.5%. For the same molecule, the inhibition at 10 µM with RAW264.7 [2] is 22.9%.

On to `O=C(Nc1ccncc1)c1csc(-c2ccc(OC(F)F)c(OCC3CC3)c2)n1`, for which the IC50 in data set [3] was found to be 77.2 nM. Besides, the inhibition at 10 µM in the data set on RAW264.7 [2] was 25.6%.

Consider `O=C(Nc1ccc2ncsc2c1)c1cnn2c(-c3ccc(OC(F)F)c(OCC4CC4)c3)ccnc12`, for which, in data set [1], the inhibition is under 73.1%.

Consider `O=C(NC1CCCCC1)c1cnn2c(-c3ccc(OC(F)F)c(OCC4CC4)c3)ccnc12`, for which the inhibition in data set [1] was under 73.1%.

As to `O=C(NCc1cccc(F)c1F)c1cc2nccc(-c3ccc(OC(F)F)c(OCC4CC4)c3)n2n1`, in data set [1], the inhibition is 64.6%. For the same molecule, the inhibition at 10 µM in the data set on RAW264.7 [2] is 13.7%.

As to `Cn1cc(NC(=O)c2cnn3c(-c4ccc(OC(F)F)c(OCC5CC5)c4)ccnc23)cn1`, the inhibition in data set [1] is under 73.1%.

With `O=C(NCc1c(F)cc(F)cc1F)c1csc(-c2ccc(OC(F)F)c(OCC3CC3)c2)n1`, the IC50 in data set [3] was 25.7 nM. In addition, in the data set on RAW264.7 [2], the inhibition at 10 µM was 34%.

On to `O=C(NCc1cc(F)ccc1F)c1cc2nccc(-c3ccc(OC(F)F)c(OCC4CC4)c3)n2n1`, for which, in data set [1], the inhibition was 42.6%. For the same molecule, in the data set on RAW264.7 [2], the inhibition at 10 µM came out at 16.3%.

`O=C(Nc1nccs1)c1cnn2c(-c3ccc(OC(F)F)c(OCC4CC4)c3)ccnc12`: in data set [1], the inhibition was under 73.1%.

Take `O=C(NCc1cccc(F)c1F)c1cnn2c(-c3ccc(OC(F)F)c(OCC4CC4)c3)ccnc12`: the inhibition in data set [1] was under 73.1%.

In the case of `CCC(CC)NC(=O)c1cnn2c(-c3ccc(OC(F)F)c(OCC4CC4)c3)ccnc12`, the inhibition in data set [1] is under 73.1%.

These data come from ChEMBL document CHEMBL6127131, “Design, Synthesis, and Biological Evaluation of New Selective PDE4 Inhibitors for Topical Treatment of Psoriasis” (J Med Chem, 2024).
